Experiments:
[1] = system: MDA-MB-231 cells; experiment: Colony formation in soft agar, MDA-MB-231; assay type: cell-based, human
Experimental: (§1) Figure 4 HB-19 inhibits colony formation in soft agar by tumor cell lines. (A) MDA-MB-231 cells in culture medium were seeded in triplicate in the absence (histogram C) or presence of 0.1, 0.5 and 1 of µM HB-19, or 0.1 µM of the anti-nucleolin mAb MS-3 or control IgG, or 10 µM bisphosphonate (BisP). (B) Various tumor cell lines (as indicated) in culture medium were seeded in triplicate in the absence (histogram Control) or presence of 5 µM HB-19. After 10–21 days, colonies with diameters greater than 50 µm were scored as positive. Statistical significance: *0.01<p<[…], **p<0.01, ***p<0.001.
(§2) Carcinoma cells (2×10^4) were mixed in 0.35% top agar, diluted in complete medium (DMEM containing 10% FBS) in the absence or presence of HB-19, and plated onto 0.8% bottom agar into 12-well plates. Cells were treated twice a week during 10 to 21 days. Colonies with diameters greater than 50 µm were scored as positive using a phase contrast microscope equipped with a measuring grid at magnification 100× [45]. The number of colonies was determined by analyzing 5 fields/well from 3 wells and the test was repeated at least twice.

[2] = system: PC3 cells; experiment: Colony formation in soft agar, PC3; assay type: cell-based, human; settings: 5 µM HB-19, PC3
Experimental: as §1, §2

[3] = system: B16 cells; experiment: Colony formation in soft agar, B16; assay type: cell-based, mouse; settings: 5 µM HB-19, B16
Experimental: as §1, §2

[4] = system: MDA-MB-231 cells; experiment: BrdU incorporation and cell cycle analysis; assay type: cell-based, human; settings: 10 µM HB-19, 48 hours, 10% FBS, compared to untreated cells
Experimental: Figure 5 Cell cycle perturbations induced by HB-19 treatment. (A) Analysis of cell cycle parameters in HB-19 treated cells. MDA-MB-231 cells were cultured for 48 hours in medium without FBS (starvation) or in medium containing 10% FBS supplemented or not with 10 µM HB-19. DNA synthesis was quantified after BrdU incorporation and staining with anti-BrdU antibody and 7-AAD, by FACScan analysis. The histograms indicate the relative amount of cells in G1, S and G2/M cell phases. […] Serum starved MDA-MB-231 cells were stimulated with 10% FBS in the absence or presence of 2, 5, and 10 µM of HB-19. Five minutes after serum stimulation, cells were lysed directly in electrophoresis sample buffer and processed for immunoblotting using anti-phospho-p42/44 ERK1/2 and anti-p42/44 ERK antibodies. NS stands for non-stimulated cells.
Cell cycle analysis was performed using the FITC-BrdU flow kit (#559619) kit from BD Bioscience Pharmingen, according to the manufacturer's instructions. Briefly, MDA-MB-231 cells (1×10^5) were seeded in 12-multiwell and incubated 24 hours for adhesion. Cells were treated with HB-19 for 48 hours and labeled with BrdU (10 µM, 1 hour, 37°C), then they were trypsinized, fixed and treated with DNase (300 µg/ml, 1 hour, 37°C) before staining with anti-BrdU-FITC antibody and 7-AAD reagent. Cells were analyzed on a Becton Dickinson FACScan (fluorescence activated cell sorter), on FL1-H and FL3-H parameters for FITC and 7-AAD fluorescent dye respectively.

[5] = system: chick embryo chorioallantoic membrane; experiment: Chick embryo chorioallantoic membrane (CAM) angiogenesis assay; assay type: in vivo, chicken; settings: 48 h; for relative percent inhibition of angiogenesis: total vessel length vs control, P<0.001, 15–20 eggs
Experimental: Figure 7 Inhibition of in vivo angiogenesis by HB-19 in chick embryo chorioallantoic membrane (CAM) assay. Macroscopic observation of the angiogenic response induced by gelatin sponges (1 cm^2), soaked with 40 µl of PBS (Control) or 40 µl PBS containing HB-19 at concentrations of 10, 20 and 50 µM (corresponding to 0.4, 0.8 and 2 nmols of HB-19, respectively). After 48 h, CAMs were fixed and excised from the eggs . Photographs were taken and the total length of the vessels was measured using the Image PC image-analysis software (Scion Corporation, USA)[48]. Each sample was tested three times using 15–20 eggs for each data point. The relative percent inhibition (P<0.001) of angiogenesis compared to the control was 27, 36 and 51% in the presence of 0.4, 0.8 and 2 nmols of HB-19, respectively.
Leghorn fertilized eggs (Pindos, Greece) were incubated for 4 days at 37°C. A window was then opened on the eggshell, exposing the CAM. The window was covered with sterile tape, and the eggs were returned to the incubator. On day 9 of embryo development, 20 µl of distilled water alone as a control or containing HB-19 was applied on a 1-cm2 area of the CAM inside a silicon ring. After 48 hours of incubation at 37°C, CAMs were fixed in situ with saline-buffered formalin, excised from the eggs, placed on slides, and left to dry in air. Photographs were taken and the total length of the vessels was measured as described.

[6] = system: MDA-MB-231 tumor-cell xenografts; experiment: MDA-MB-231 xenograft in nude mice; assay type: in vivo, human
Experimental: Figure 8 HB-19 inhibits tumor growth in the nude mice. (A) HB-19 inhibits the growth of MDA-MB-231 tumor-cell xenografts. Cells (2×10^6) were injected subcutaneously into the right flank of female nude mice. Two weeks later, mice with a palpable tumor of approximately 40 mm^3 in volume were randomly separated into three groups (n = 5) and were given peritumoral injections 3 times/week of 0.1 ml PBS alone (Control), HB-19 (5 mg/kg), or Tamoxifen (Tmx) 10 mg/kg) for 6 weeks. (B) HB-19 inhibits the growth of MDA-MB-435 tumor-cell xenografts. Cells (1×10^6) were injected in the mammary fat pad of female nude mice. Two weeks later, mice with a palpable tumor were randomly separated into three groups (n = 10) and were given intraperitoneal injections 3 times/week of 0.1 ml PBS alone (Control), HB-19 (5 mg/kg), or 5-fluouracil (5-FU, 40 mg/kg) for 8 weeks. At the end of each experiment (in A and B), mice were sacrificed and the tumors were excised and weighed. The results are presented as the mean weight ±standard deviation (±S.D.) obtained from the number of mice in each group. (C, D) Inhibition of tumor development in mice treated by intraperitoneal (i.p.) and subcutaneous (s.c.) administration of HB-19. MDA-MB-231 tumor bearing mice in three groups (n = 10) were treated with HB-19 (10 mg/kg) by i.p. or s.c. injections, 3 times/week for 28 days. […] Statistical significance: *p<0.05, **p<0.01, ***p<0.001.

[7] = HB-19 10 mg/kg, intraperitoneal, 3 times/week, 28 days, n = 10

**Q.** How did the “reduction of colony-forming capacity” value ([1]; 1 µM HB-19, triplicate, colonies >50 µm, 10–21 days) turn out when “pseudo-tripeptide Lysψ(CH2N)-Pro-Arg coupled to a template (H2NLys-Lys-Lys-Gly-Pro-Lys-Glu-Lys-AhxCONH2) [HB-19, pseudopeptide presenting pentavalently the pseudo-tripeptide Lysψ(CH2N)-Pro-Arg coupled to a template]” was run?
**A.** Its value is 50%.

**Q.** And the colony formation ([1]; 5 µM HB-19, MDA-MB-231)?
**A.** Its colony formation is “reduced markedly”.

**Q.** What about the “reduction of colony-forming capacity” value ([1]; HB-19 0.1, 0.5 and 1 µM, anti-nucleolin mAb MS-3 0.1 µM) of the same substance?
**A.** Its value is “reduced significantly”.

**Q.** What about the colony formation [2] of the same substance?
**A.** The colony formation was “reduced markedly”.

**Q.** What about the colony formation [3] of the same substance?
**A.** The colony formation was “reduced markedly”.

**Q.** What about the “decrease of cells in S phase” value [4] of the same substance?
**A.** Its value is 62%.

**Q.** And the “increase of cells in G1 phase” value [4]?
**A.** The value was 9%.

**Q.** What about the “increase of cells in G2/M phase” value [4] of the same substance?
**A.** The value was 31%.

**Q.** And the “relative percent inhibition of angiogenesis” value (shortened to “relative percent inhibition”) ([5]; 0.4 nmol HB-19 (10 µM, 40 µl))?
**A.** The value was 27%.

**Q.** What about the “relative percent inhibition” value ([5]; 0.8 nmol HB-19 (20 µM, 40 µl)) of the same substance?
**A.** Its value is 36%.

**Q.** And the “relative percent inhibition” value ([5]; 2 nmol HB-19 (50 µM, 40 µl))?
**A.** The value was 51%.

**Q.** What about the “blood vessel branching and development” value ([5]; HB-19 10, 20 and 50 µM) of the same substance?
**A.** The value was “impaired significantly blood vessel branching and development in a dose-dependent manner”.

**Q.** And the “antitumoral activity compared with tamoxifen” value ([6]; HB-19 5 mg/kg vs tamoxifen 10 mg/kg, peritumoral)?
**A.** The value was “superior to the conventional cancer drug tamoxifen”.

**Q.** And the tumor elimination ([6]; HB-19 5 mg/kg, peritumoral, 3 times/week, 6 weeks)?
**A.** The tumor elimination was “in some cases eliminated measurable tumors”.

**Q.** And the “inhibition of tumor growth” value ([6]; HB-19 5 mg/kg, peritumoral, 3 times/week, 6 weeks, n = 5)?
**A.** Its value is over 95%.

**Q.** And the “complete eradication of the tumor” value [6, 7]?
**A.** Its value is “Complete eradication of the tumor was observed in several mice”.

**Q.** And the “inhibition in tumor volume” value [6, 7]?
**A.** Its value is “more than 95%”.

**Q.** And the “inhibition in tumor volume” value ([6]; HB-19 10 mg/kg, subcutaneous, 3 times/week, 28 days, n = 10)?
**A.** The value was “more than 95%”.

Reference: article PMC2424174, “Suppression of Tumor Growth and Angiogenesis by a Specific Antagonist of the Cell-Surface Expressed Nucleolin” (PLoS ONE, 2008)
